In patent publication US6313111A, “Substituted 6H-1,3,4-thiadiazine-2-amines, the use thereof as anaesthetising, cardiovascular and hypometabolic agents, and pharmaceutical composition containing them” (priority 1998, dated 2001):
Several values for one entry are separate records, joined by “and”; a condition that tells them apart may be missing. Equal entries are not always repeated. Structures can show the parent of a compound that is named as a salt.

Assays:
[1] = rectal (body) temperature of mice measured with medicinal electrothermometer TREM-1; type: in vivo, mice of the BALB line; conditions: for body temperature: i.p.
Procedure: In all cases tests were carried out on mice of the BALB line of 3-4 month age. […] In the case of water-soluble compounds, aqueous solutions of the test compounds were injected intraperitoneally (i.p.), while water-insoluble compounds were introduced orally (p.o.).
Rectal temperature changes (absolute magnitues in ° C.) were measured using a medicinal electrothermometer TREM-1 (Table 1). The rate of oxygen consumption was monitored by measuring concentration of oxygen in a closed testing unit with optic-acoustic gas analyser MN 5130. The data on oxygen consumption are given in percents relative to the starting content of oxygen taken as 100%. (Table 2).
Rectal temperature of mice was followed in dynamics after 5, 15, 30, 60, 120, 180, 240, 300, and 360 minutes (Table 3). […] The same decrease in temperature at 190 mg/kg dosage was reached after 15 minutes; in 1.5 hours it reached 22-25° C. and maintained this level over the next 5 hours, that is 13-17° C. below the initial value. After one day, body temperature was restored to the value of 94-96% of initial.

[2] = lethal dose (LD16, LD50) in mice; type: in vivo, mice of the BALB line

## c1ccc(C2=NN=C(N3CCOCC3)SC2)cc1 [Compound 1, 2-Morpholino-5-phenyl-6H-1,3,4-thiadiazine, hydrobromide]
[1]; 190.0 mg/kg i.p., 20 min
  body temperature (T): 30.8 ± 0.2 °C
[1]; 190.0 mg/kg i.p., 30 min, hydrobromide
  body temperature (T): 26.9 ± 0.4 °C and 26.9 °C
[1]; 190.0 mg/kg i.p., 40 min
  body temperature (T): 25.9 ± 0.3 °C
[1]; 190.0 mg/kg i.p., 60 min
  body temperature (T): 23.5 ± 0.2 °C
[1]; 190.0 mg/kg i.p., 90 min
  body temperature (T): 21.4 ± 0.2 °C
[1]; 190.0 mg/kg i.p., 120 min
  body temperature (T): 23.0 ± 0.8 °C
[1]; 190.0 mg/kg i.p., 180 min
  body temperature (T): 20.9 ± 0.1 °C
[1]; 190.0 mg/kg i.p., 210 min
  body temperature (T): 21.4 °C
[1]; 190.0 mg/kg i.p., 240 min
  body temperature (T): 21.1 ± 0.1 °C
[1]; 190.0 mg/kg i.p., 270 min
  body temperature (T): 20.8 ± 0.3 °C
[1]; 190.0 mg/kg i.p., 300 min, hydrobromide
  body temperature (T): 20.2 ± 0.0 °C and 20.2 ± 0.2 °C
[1]; 190.0 mg/kg i.p., 330 min
  body temperature (T): 19.8 ± 0.2 °C
[1]; 190.0 mg/kg i.p., 390 min
  body temperature (T): 19.8 ± 0.2 °C
[1]; 190.0 mg/kg i.p., 1140 min
  body temperature (T): 36.9 °C
[1]; 190.0 mg/kg i.p., 1620 min
  body temperature (T): 37.9 ± 0.4 °C
[1]; 190.0 mg/kg i.p., 1980 min
  body temperature (T): 36.9 ± 0.3 °C
[1]; 190 mg/kg i.p., after reaching 22-25° C. in 1.5 hours
  time over which the temperature level was maintained: 5 h
[1]; 190 mg/kg i.p., from 1.5 hours over the next 5 hours
  body temperature below the initial value: 13-17 °C
[1]; 190 mg/kg i.p., in 1.5 hours
  body temperature level reached: 22-25 °C
[1]; 279.0 mg/kg i.p., 0 min
  body temperature (T): 38.9 ± 0.6 °C
[1]; 279.0 mg/kg i.p., 10 min
  body temperature (T): 35.8 ± 0.1 °C
[1]; 279.0 mg/kg i.p., 20 min
  body temperature (T): 30.2 ± 0.1 °C
[1]; 279.0 mg/kg i.p., 30 min
  body temperature (T): 27.1 °C
[1]; 279.0 mg/kg i.p., 40 min
  body temperature (T): 24.7 ± 0.2 °C
[1]; 279.0 mg/kg i.p., 60 min
  body temperature (T): 21.0 ± 0.1 °C
[1]; 279.0 mg/kg i.p., 90 min
  body temperature (T): 20.0 ± 0.1 °C
[1]; 279.0 mg/kg i.p., 120 min
  body temperature (T): 21.0 ± 0.3 °C
[1]; 279.0 mg/kg i.p., 180 min
  body temperature (T): 21.2 ± 0.2 °C
[1]; 279.0 mg/kg i.p., 210 min
  body temperature (T): 21.2 °C
[1]; 279.0 mg/kg i.p., 240 min
  body temperature (T): 20.8 ± 0.1 °C
[1]; 279.0 mg/kg i.p., 270 min
  body temperature (T): 21.5 ± 0.1 °C
[1]; 279.0 mg/kg i.p., 300 min
  body temperature (T): 21.3 ± 0.3 °C
[1]; 279.0 mg/kg i.p., 330 min
  body temperature (T): 22.5 ± 0.3 °C
[1]; 279.0 mg/kg i.p., 390 min
  body temperature (T): 19.4 ± 0.3 °C
[1]; 279.0 mg/kg i.p., 1140 min
  body temperature (T): 20.8 °C
[1]; 279.0 mg/kg i.p., 1620 min
  body temperature (T): 22.6 ± 0.9 °C
[1]; 279.0 mg/kg i.p., 1980 min
  body temperature (T): 21.2 ± 0.3 °C
[1]; 365.0 mg/kg i.p., 0 min
  body temperature (T): 39.6 ± 0.1 °C
[1]; 365.0 mg/kg i.p., 10 min
  body temperature (T): 35.4 ± 0.2 °C
[1]; 365.0 mg/kg i.p., 20 min
  body temperature (T): 30.1 ± 0.2 °C
[1]; 365.0 mg/kg i.p., 30 min
  body temperature (T): 27.2 °C
[1]; 365.0 mg/kg i.p., 40 min
  body temperature (T): 25.5 ± 0.2 °C
[1]; 365.0 mg/kg i.p., 60 min
  body temperature (T): 23.3 ± 0.3 °C
[1]; 365.0 mg/kg i.p., 90 min
  body temperature (T): 21.5 ± 0.2 °C
[1]; 365.0 mg/kg i.p., 120 min
  body temperature (T): 20.9 ± 0.2 °C
[1]; 365.0 mg/kg i.p., 180 min
  body temperature (T): 21.4 ± 0.1 °C
[1]; 365.0 mg/kg i.p., 210 min
  body temperature (T): 21.2 °C
[1]; 365.0 mg/kg i.p., 240 min
  body temperature (T): 21.1 ± 0.0 °C
[1]; 365.0 mg/kg i.p., 270 min
  body temperature (T): 21.4 ± 0.7 °C
[1]; after one day, 190 mg/kg i.p.
  body temperature restored, % of initial: 94-96%
[1]; dose 36.5 mg/kg (1.06 mM/kg) i.p., 300 min
  body temperature (T): 22.1 ± 0.0 °C
[1]; dose 36.5 mg/kg (1.06 mM/kg) i.p., 330 min
  body temperature (T): 21.5 ± 0.1 °C
[1]; dose 36.5 mg/kg (1.06 mM/kg) i.p., 390 min
  body temperature (T): 20.0 ± 0.2 °C
[1]; dose 36.5 mg/kg (1.06 mM/kg) i.p., 1140 min
  body temperature (T): 20.8 °C
[1]; dose 36.5 mg/kg (1.06 mM/kg) i.p., 1620 min
  body temperature (T): 21.6 ± 0.1 °C
[1]; dose 36.5 mg/kg (1.06 mM/kg) i.p., 1980 min
  body temperature (T): 22.1 ± 0.2 °C
[1]; 0 min, mg/kg: cpd 1 190.0, cpd 2 178.0, cpd 5 190.0, cpd 6 160.0
  body temperature: 39.2 °C
[1]; 30 min, mg/kg: cpd 1 190.0, cpd 2 178.0, cpd 5 190.0, cpd 6 160.0
  body temperature: 26.9 °C
[1]; 60 min, mg/kg: cpd 1 190.0, cpd 2 178.0, cpd 5 190.0, cpd 6 160.0
  body temperature: 23.5 °C
[1]; 90 min, mg/kg: cpd 1 190.0, cpd 2 178.0, cpd 6 160.0
  body temperature: 21.4 °C
[1]; 120 min, mg/kg: cpd 1 190.0, cpd 2 178.0, cpd 5 190.0, cpd 6 160.0
  body temperature: 23.0 °C
[1]; 180 min, mg/kg: cpd 1 190.0, cpd 2 178.0, cpd 5 190.0, cpd 6 160.0
  body temperature: 20.9 °C
[1]; 240 min, mg/kg: cpd 1 190.0, cpd 2 178.0, cpd 5 190.0, cpd 6 160.0
  body temperature: 21.1 °C
[1]; 300 min, mg/kg: cpd 1 190.0, cpd 2 178.0, cpd 6 160.0
  body temperature: 20.2 °C
[2]; i.p.
  1/2 LD16, calculated: 140 mg/kg
  1/2 LD16, experimental: 190 mg/kg
  1/16 LD16 (lower end of dose range 1/16 LD16 -LD50): 10 mg/kg
[2]; mouse, in vivo, ip, read-out: LD50 (upper end of dose range 1/16 LD16 -LD50)
  LD50: 365 mg/kg
